Results: patent US7879876B2, “Sulfonamide derivatives and use thereof for the modulation of metalloproteinases” (Merck Serono SA, priority 2005, dated 2011)

Key:
Format in all cases: biochemical
collagenase (MMP-1) = target: T1, collagenase (MMP-1) (Homo sapiens, UniProt P03956); experiment: MMP-1 enzyme inhibition assay (coumarin-labelled peptide substrate); settings: @ 5 μM; read-out: percentage inhibition MMP1
T1 sequence (P03956 100-469): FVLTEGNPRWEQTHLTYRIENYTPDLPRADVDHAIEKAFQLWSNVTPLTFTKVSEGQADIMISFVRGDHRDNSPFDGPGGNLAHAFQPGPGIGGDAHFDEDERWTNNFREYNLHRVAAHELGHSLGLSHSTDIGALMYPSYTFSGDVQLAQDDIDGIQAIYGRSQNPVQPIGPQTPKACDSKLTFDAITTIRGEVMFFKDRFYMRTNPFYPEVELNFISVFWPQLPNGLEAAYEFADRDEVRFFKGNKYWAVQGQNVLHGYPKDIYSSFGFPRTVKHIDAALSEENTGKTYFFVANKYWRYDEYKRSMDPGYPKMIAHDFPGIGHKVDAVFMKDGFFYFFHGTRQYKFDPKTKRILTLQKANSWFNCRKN
In short: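 Recombinant human MMP-1, APMA-activated if needed, in Tris-HCl pH 7.6 with NaCl, CaCl2 and 0.05% Brij 35; McaPLGLDpaAR substrate added as 8 μM solution, 2 h at 37 °C. Fluorescence (320/405 nm) read without stopping; IC50 from 10 duplicate concentrations (100 μM–5.1 nM) by four-parameter fit.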

[1] = target: 92 kDa gelatinase (MMP-9) (Homo sapiens, UniProt P14780); experiment: MMP-9 enzyme inhibition assay (coumarin-labeled peptide substrate); settings: @ 5 μM; read-out: percentage inhibition MMP9
In short: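 Recombinant human MMP-9 (APMA-activated if needed) was assayed in 100 mM Tris-HCl pH 7.6, 100 mM NaCl, 10 mM CaCl2, 0.05% Brij 35, with McaPLGLDpaAR substrate at 37° C. for 2 h. Fluorescence was read at ex 320/em 405 nm over ten 3-fold compound doses (100 μM–5.1 nM) in duplicate. IC50 came from a four-parameter fit.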

human ADAM17 (TACE) = human ADAM17 (TACE) (Homo sapiens, UniProt P78536); experiment: TACE enzyme inhibition assay
In short: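 Recombinant human ADAM17 was run in 20 mM HEPES pH 7.5 with 0.05% Brij 35, using Mca/Dnp-TNF-alpha(−5 to +6) amide substrate (5 μM solution), for 1.5 h at room temperature. Fluorescence (ex 355/em 405 nm) was read unstopped over ten concentrations (100 μM–0.01 nM). IC50 came from a four-parameter fit, rounded to one significant figure.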

Chain of 92 kDa gelatinase (MMP-9) (P14780 107-707 limits assumed): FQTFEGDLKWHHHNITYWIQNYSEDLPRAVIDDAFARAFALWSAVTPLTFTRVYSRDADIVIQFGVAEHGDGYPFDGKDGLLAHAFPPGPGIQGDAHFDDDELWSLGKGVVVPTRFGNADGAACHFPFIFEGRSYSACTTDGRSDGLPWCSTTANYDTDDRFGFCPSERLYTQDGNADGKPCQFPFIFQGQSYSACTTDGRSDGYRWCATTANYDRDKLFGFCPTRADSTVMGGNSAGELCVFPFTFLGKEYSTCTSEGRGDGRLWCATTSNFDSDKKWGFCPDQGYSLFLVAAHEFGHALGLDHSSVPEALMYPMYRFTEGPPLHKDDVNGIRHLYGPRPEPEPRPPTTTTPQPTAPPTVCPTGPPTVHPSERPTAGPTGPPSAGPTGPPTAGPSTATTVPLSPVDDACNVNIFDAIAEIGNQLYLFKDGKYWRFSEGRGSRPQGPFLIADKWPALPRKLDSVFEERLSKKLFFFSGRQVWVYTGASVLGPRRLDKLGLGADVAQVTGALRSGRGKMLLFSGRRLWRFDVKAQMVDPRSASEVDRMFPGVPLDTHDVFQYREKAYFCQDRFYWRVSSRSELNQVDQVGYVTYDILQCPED
Chain of human ADAM17 (TACE) (P78536 215-824): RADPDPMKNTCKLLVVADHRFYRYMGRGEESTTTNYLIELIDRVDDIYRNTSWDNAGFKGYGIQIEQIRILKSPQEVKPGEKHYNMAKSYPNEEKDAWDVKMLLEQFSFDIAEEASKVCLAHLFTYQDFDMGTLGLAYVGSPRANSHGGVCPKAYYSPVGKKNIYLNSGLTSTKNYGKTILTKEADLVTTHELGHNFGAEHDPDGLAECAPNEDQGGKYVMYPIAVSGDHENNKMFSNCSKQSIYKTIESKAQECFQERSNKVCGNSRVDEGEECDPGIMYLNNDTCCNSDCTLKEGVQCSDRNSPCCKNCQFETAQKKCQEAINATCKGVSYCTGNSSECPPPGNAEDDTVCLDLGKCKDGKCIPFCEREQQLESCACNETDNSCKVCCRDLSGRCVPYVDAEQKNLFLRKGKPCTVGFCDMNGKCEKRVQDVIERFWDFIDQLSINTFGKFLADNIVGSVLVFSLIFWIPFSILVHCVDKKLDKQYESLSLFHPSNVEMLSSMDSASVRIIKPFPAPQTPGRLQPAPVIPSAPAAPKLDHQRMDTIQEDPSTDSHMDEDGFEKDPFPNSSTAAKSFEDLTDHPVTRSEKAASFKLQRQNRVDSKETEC

Row | Structure (SMILES) | inhibition at 5 µM (collagenase (MMP-1)) | inhibition at 5 µM [1] | IC50 (human ADAM17 (TACE))
1 | O=CN(O)C(CS(=O)(=O)N1Cc2ccccc2C1)C1CC1 (stereo not drawn) [Example 72, N-[1-cyclopropyl-2-(1,3-dihydro-2H-isoindol-2-ylsulfonyl)-ethyl]-N-hydroxyformamide] | 75% | 28% | 683 nM
2 | O=CN(O)C(CS(=O)(=O)N1CCc2ccc(Cl)cc2C1)C1CC1 (stereo not drawn) [Example 73, N-{2-[(7-chloro-3,4-dihydroisoquinolin-2(1H)-yl)sulfonyl]-1-cyclopropylethyl}-N-hydroxyformamide] | 19% | 5% | 88 nM
3 | O=CN(O)C(CS(=O)(=O)N1CCc2cc(C(F)(F)F)ccc2C1)C1CC1 (stereo not drawn) [Example 74, N-(1-cyclopropyl-2-{[6-(trifluoromethyl)-3,4-dihydro-isoquinolin-2(1H)-yl]sulfonyl}ethyl)-N-hydroxyformamide] | 44% | 32% | > 5000 nM
4 | O=CN(O)C(CS(=O)(=O)N1CCc2ccc(-c3ccc(F)cc3)cc2C1)C1CC1 (stereo not drawn) [Example 75, N-(1-cyclopropyl-2-{[7-(4-fluorophenyl)-3,4-dihydro-isoquinolin-2(1H)-yl]sulfonyl}ethyl)-N-hydroxyformamide] | 0% | 71% | 394 nM
5 | O=CN(O)C(CCC(F)(F)F)CS(=O)(=O)N1CCc2ccc(Cl)cc2C1 (stereo not drawn) [Example 76, N-(1-{[(7-chloro-3,4-dihydroisoquinolin-2(1H)-yl)-sulfonyl]methyl}-4,4,4-trifluorobutyl)-N-hydroxyformamide] | 43% | 14% | 115 nM
6 | O=CN(O)C(CS(=O)(=O)N1CCc2cc(Cl)c(Cl)cc2C1)C1CCCC1 (stereo not drawn) [Example 77, N-{1-cyclopentyl-2-[(6,7-dichloro-3,4-dihydroisoquinolin-2(1H)-yl)sulfonyl]ethyl}-N-hydroxyformamide] | 17% | 35% | 229 nM

Now from value to compound:

Row | inhibition at 5 µM (collagenase (MMP-1)) | inhibition at 5 µM [1] | IC50 (human ADAM17 (TACE)) | Structure (SMILES)
7 | 0% | 57% | 587 nM | O=CN(O)C(CS(=O)(=O)N1CCc2ccc(-c3ccncc3)cc2C1)C1CCCC1 (stereo not drawn) [Example 79, N-{1-cyclopentyl-2-[(7-pyridin-4-yl-3,4-dihydroisoquinolin-2(1H)-yl)sulfonyl]ethyl}-N-hydroxyformamide]
8 | 25% | 0% | > 5000 nM | O=CN(O)C(CS(=O)(=O)N1Cc2ccc(F)cc2C1)C1CCCC1 (stereo not drawn) [Example 80, N-{1-cyclopentyl-2-[(5-fluoro-1,3-dihydro-2H-isoindol-2-yl)sulfonyl]ethyl}-N-hydroxyformamide]
9 | 3% | 44% | > 5000 nM | CC(C)c1ccc2c(c1)CCN(S(=O)(=O)CC(C1CCCC1)N(O)C=O)C2 (stereo not drawn) [Example 81, N-{1-cyclopentyl-2-[(6-isopropyl-3,4-dihydroisoquinolin-2(1H)-yl)sulfonyl]ethyl}-N-hydroxyformamide]
10 | 10% | 0% | > 5000 nM | O=CN(O)C(CS(=O)(=O)N1CCc2ccc(C(F)(F)F)cc2C1)C1CCCC1 (stereo not drawn) [Example 82, N-(1-cyclopentyl-2-{[7-(trifluoromethyl)-3,4-dihydro-isoquinolin-2(1H)-yl]sulfonyl}ethyl)-N-hydroxyformamide]
11 | 4% | 4% | > 5000 nM | O=CN(O)C(CS(=O)(=O)N1CCc2ccc(C(F)(F)F)cc2C1)C1CC1 (stereo not drawn) [Example 83, N-(1-cyclopropyl-2-{[7-(trifluoromethyl)-3,4-dihydroisoquinolin-2(1H)-yl]sulfonyl}ethyl)-N-hydroxyformamide]
12 | 5% | 28% | > 5000 nM | CC(C)c1ccc2c(c1)CCN(S(=O)(=O)CC(C1CC1)N(O)C=O)C2 (stereo not drawn) [Example 85, N-{1-cyclopropyl-2-[(6-isopropyl-3,4-dihydroisoquinolin-2(1H)-yl)sulfonyl]ethyl}-N-hydroxyformamide]
13 | 49% | 52% | 59 nM | O=CN(O)C(CCc1cccnc1)CS(=O)(=O)N1CCc2ccc(Cl)cc2C1 (stereo not drawn) [Example 86, N-(1-{[(7-chloro-3,4-dihydroisoquinolin-2(1H)-yl)sulfonyl]methyl}-3-pyridin-3-ylpropyl)-N-hydroxyformamide]
